Reference: the NIST ThermoML archive (doi:10.1021/je0501585)

Experiment: xn = mol fraction of the nth substance listed
Settings: 101 kPa, Liquid; for viscosity: Capillary tube (Ostwald / Ubbelohde) method; for excess molar volume: Direct dilatometry; for speed of sound: Linear variable-path acoustic interferometer

Cc1ccc(C)cc1 [1,4-dimethylbenzene] + CCCCCCCCCC
Settings | excess molar volume, 303.15 K [m3/mol] | excess molar volume, 308.15 K [m3/mol] | speed of sound, 303.15 K [m/s] | viscosity, 303.15 K [mPa·s] | viscosity, 308.15 K [mPa·s]
x1 = 0.1533 | 2.83e-07 | 4.89e-07 | 1215.1 | 0.729 | 0.678
x1 = 0.2952 | 4.35e-07 | 6.8e-07 | 1220 | 0.68 | 0.639
x1 = 0.4189 | 5.14e-07 | 7.6e-07 | 1225.5 | 0.646 | 0.609
x1 = 0.4949 | 5.29e-07 | 7.59e-07 | 1230 | 0.628 | 0.592
x1 = 0.6001 | 4.9e-07 | 7.03e-07 | 1237.9 | 0.605 | 0.572
x1 = 0.6938 | 4.26e-07 | – | 1246.6 | 0.588 | 0.557
x1 = 0.7777 | 3.54e-07 | – | 1255.4 | 0.576 | 0.546
x1 = 0.8604 | 2.73e-07 | – | 1265.3 | 0.568 | 0.539
x1 = 0.9332 | 1.72e-07 | – | 1274.4 | 0.566 | 0.537
x1 = 1 | 0 | – | 1283.7 | 0.566 | 0.537
